Tests used:
[1] = tested on: HIV-1; conditions: certain cultured cells; Cocchi et al., 1995; cited from earlier work
[2] = tested on: HIV-1; conditions: SCID-hu mice; Datema et al., 1996; cited from earlier work
[3] = tested on: fusion mediated by CD4, CXCR4, and the HIV-1 Env protein gp143; test: CHO cell/Jurkat cell fusion assay, β-lactamase/CCF2 FRET readout; type: cell-based; conditions: CHO gp143/HXB2 cells with Jurkat β-lactamase cells
Method: Jurkat cells expressing β-lactamase (and which naturally express CXCR4 and CD4) were added to the CHO cells and incubated at 37° C. for a period sufficient to allow fusion to occur. The non-fused cells were removed by washing and the fluorogenic 1β-lactamase substrate CCF2/AM was added to the remaining cells. After a 1 hour incubation at room temperature, cell fusion was measured by fluorescence on a fluorescence plate reader. The ratio of emission of the donor dye (7-hydroxycoumarin) over emission of the acceptor dye (fluorescein) was measured.
Fusion is measured by observing the ratio of blue emission (460 nm) to green emission (530 nm). A high ratio indicates more fusion; a low ratio indicates less fusion.
CHO cells expressing gp143/HXB2 were plated in 96-well black, clear-bottom plates (Costar catalogue number 3603) at 5×10^4 cells per well in 200 μl of medium per well. The medium was Iscove's Modified Dulbecco's Medium (Gibco catalogue number 12440-046) supplemented with: 10% fetal bovine serum, G418 (1 mg/ml), 1 mg/ml penicillin/streptomycin (Gibco catalogue number 15140-122), glutamine (2 mM), and HT (ATCC 71-X).
The cells were incubated overnight at 37° C. […]
The plates were read on a Cytofluor II fluorescence plate reader (PerSeptive Biosystems) at 2 scans/cycle. […]

RANTES
suppression of HIV-1 replication [1]: able to suppress HIV-1 replication

c1cc(CN2CCCNCCNCCCNCC2)ccc1CN1CCCNCCNCCCNCC1 [AMD3100]
inhibition of HIV-1 replication [2]: inhibits HIV-1 replication

SDF-1: the natural ligand for CXCR4 (PeproTech Inc.); a chemokine
inhibition of fusion (in words) [3]: dose-dependent inhibition of fusion
